The subject of test [1] is NA activity of oseltamivir-susceptible (wild-type) H1N1 influenza virus A/Brisbane/59/2007. It is filed as biochemical.
In test [2] the test system is NA activity of oseltamivir-susceptible (wild-type) H1N1 influenza virus A/Netherlands/049/2008. It is filed as biochemical.

Consider `CCN[C@H]1C[C@H](C)S(=O)(=O)c2sc(S(N)(=O)=O)cc21` [Dorzolamide, dorzolamide], for which the “effect on NA activity” value in test [1] and in test [2] was “no effect” in each case.
On to `CCn1cc(C(=O)O)c(=O)c2ccc(C)nc21` [Nalidixic acid, nalidixic acid], for which the “effect on NA activity” value in test [1] and in test [2] was “no effect” each time.

These data come from publication PMC4807618 (Angewandte Chemie (International ed. in English), 2016).
